According to the NIST ThermoML archive (doi:10.1021/je0602925):
Numbers after ± are expanded uncertainties.

Test: activity coefficient (dimensionless); of the first substance listed, at infinite dilution; xn = mol fraction of the nth substance listed
Conditions: Liquid, Chromatography, x1 = 0

| SMILES | activity coefficient (308.15 K) | activity coefficient (318.15 K) | activity coefficient (328.15 K) |
| --- | --- | --- | --- |
| C1CCCC1 [cyclopentane] + CCCCCCCCCCCCCC[P+](CCCCCC)(CCCCCC)CCCCCC.F[B-](F)(F)F | 0.638 ± 0.044 | 0.63 ± 0.044 | 0.625 ± 0.043 |
| c1ccccc1 [benzene] + CCCCCCCCCCCCCC[P+](CCCCCC)(CCCCCC)CCCCCC.[Cl-] | 0.408 ± 0.034 | 0.403 ± 0.034 | 0.4 ± 0.034 |
| CCCCCC [hexane] + CCCCCCCCCCCCCC[P+](CCCCCC)(CCCCCC)CCCCCC.O=S(=O)([N-]S(=O)(=O)C(F)(F)F)C(F)(F)F | 0.766 ± 0.05 | 0.751 ± 0.049 | 0.742 ± 0.049 |
| C#CCCCCCC [1-octyne] + CCCCCCCCCCCCCC[P+](CCCCCC)(CCCCCC)CCCCCC.F[B-](F)(F)F | 0.387 ± 0.034 | 0.406 ± 0.034 | 0.417 ± 0.035 |
| C1CCCCC1 [cyclohexane] + CCCCCCCCCCCCCC[P+](CCCCCC)(CCCCCC)CCCCCC.[Cl-] | 0.631 ± 0.044 | 0.627 ± 0.043 | 0.625 ± 0.043 |
| C=CCCCCC [1-heptene] + CCCCCCCCCCCCCC[P+](CCCCCC)(CCCCCC)CCCCCC.O=S(=O)([N-]S(=O)(=O)C(F)(F)F)C(F)(F)F | 0.558 ± 0.04 | 0.549 ± 0.04 | 0.543 ± 0.04 |
| CCCCCC [hexane] + CCCCCCCCCCCCCC[P+](CCCCCC)(CCCCCC)CCCCCC.F[B-](F)(F)F | 0.968 ± 0.061 | 0.942 ± 0.059 | 0.925 ± 0.058 |
| C=CCCCCCC [oct-1-ene] + CCCCCCCCCCCCCC[P+](CCCCCC)(CCCCCC)CCCCCC.[Cl-] | 0.567 ± 0.041 | 0.557 ± 0.04 | 0.552 ± 0.04 |
| C1CCCC1 [cyclopentane] + CCCCCCCCCCCCCC[P+](CCCCCC)(CCCCCC)CCCCCC.O=S(=O)([N-]S(=O)(=O)C(F)(F)F)C(F)(F)F | 0.562 ± 0.04 | 0.559 ± 0.04 | 0.558 ± 0.04 |
| C=CCCCCC [1-heptene] + CCCCCCCCCCCCCC[P+](CCCCCC)(CCCCCC)CCCCCC.F[B-](F)(F)F | 0.663 ± 0.045 | 0.647 ± 0.044 | 0.637 ± 0.044 |
| CCO [ethanol] + CCCCCCCCCCCCCC[P+](CCCCCC)(CCCCCC)CCCCCC.[Cl-] | 0.74 ± 0.049 | 0.737 ± 0.049 | 0.735 ± 0.049 |
| c1ccccc1 [benzene] + CCCCCCCCCCCCCC[P+](CCCCCC)(CCCCCC)CCCCCC.O=S(=O)([N-]S(=O)(=O)C(F)(F)F)C(F)(F)F | 0.406 ± 0.034 | 0.403 ± 0.034 | 0.402 ± 0.034 |
| C#CCCCC [1-hexyne] + CCCCCCCCCCCCCC[P+](CCCCCC)(CCCCCC)CCCCCC.O=S(=O)([N-]S(=O)(=O)C(F)(F)F)C(F)(F)F | 0.454 ± 0.036 | 0.463 ± 0.036 | 0.468 ± 0.037 |
| C=CCCCCCC [oct-1-ene] + CCCCCCCCCCCCCC[P+](CCCCCC)(CCCCCC)CCCCCC.F[B-](F)(F)F | 0.769 ± 0.05 | 0.748 ± 0.049 | 0.734 ± 0.049 |
| C=CCCCC [hex-1-ene] + CCCCCCCCCCCCCC[P+](CCCCCC)(CCCCCC)CCCCCC.[Cl-] | 0.477 ± 0.037 | 0.471 ± 0.037 | 0.468 ± 0.037 |
| CCCCCCC [heptane] + CCCCCCCCCCCCCC[P+](CCCCCC)(CCCCCC)CCCCCC.[Cl-] | 0.816 ± 0.053 | 0.803 ± 0.052 | 0.795 ± 0.052 |
| C1CCCCCC1 [cycloheptane] + CCCCCCCCCCCCCC[P+](CCCCCC)(CCCCCC)CCCCCC.O=S(=O)([N-]S(=O)(=O)C(F)(F)F)C(F)(F)F | 0.787 ± 0.051 | 0.779 ± 0.051 | 0.774 ± 0.051 |
| CCCCC [pentane] + CCCCCCCCCCCCCC[P+](CCCCCC)(CCCCCC)CCCCCC.O=S(=O)([N-]S(=O)(=O)C(F)(F)F)C(F)(F)F | 0.611 ± 0.043 | 0.602 ± 0.042 | 0.597 ± 0.042 |
| CO [methanol] + CCCCCCCCCCCCCC[P+](CCCCCC)(CCCCCC)CCCCCC.O=S(=O)([N-]S(=O)(=O)C(F)(F)F)C(F)(F)F | 0.942 ± 0.059 | 0.958 ± 0.06 | 0.989 ± 0.062 |
| C1CCCCCC1 [cycloheptane] + CCCCCCCCCCCCCC[P+](CCCCCC)(CCCCCC)CCCCCC.F[B-](F)(F)F | 1 ± 0.063 | 0.979 ± 0.061 | 0.965 ± 0.061 |
| C#CCCCCC [1-heptyne] + CCCCCCCCCCCCCC[P+](CCCCCC)(CCCCCC)CCCCCC.F[B-](F)(F)F | 0.374 ± 0.033 | 0.389 ± 0.034 | 0.399 ± 0.034 |
| C1CCCCC1 [cyclohexane] + CCCCCCCCCCCCCC[P+](CCCCCC)(CCCCCC)CCCCCC.O=S(=O)([N-]S(=O)(=O)C(F)(F)F)C(F)(F)F | 0.612 ± 0.043 | 0.609 ± 0.043 | 0.607 ± 0.042 |
| C=CCCCCC [1-heptene] + CCCCCCCCCCCCCC[P+](CCCCCC)(CCCCCC)CCCCCC.[Cl-] | 0.523 ± 0.039 | 0.515 ± 0.038 | 0.511 ± 0.038 |
| CO [methanol] + CCCCCCCCCCCCCC[P+](CCCCCC)(CCCCCC)CCCCCC.F[B-](F)(F)F | 6.68 ± 0.46 | 6.38 ± 0.43 | 6.1 ± 0.42 |

| SMILES | activity coefficient (308.15 K) | activity coefficient (318.15 K) | activity coefficient (328.15 K) |
| --- | --- | --- | --- |
| CCCCCCC [heptane] + CCCCCCCCCCCCCC[P+](CCCCCC)(CCCCCC)CCCCCC.O=S(=O)([N-]S(=O)(=O)C(F)(F)F)C(F)(F)F | 0.783 ± 0.051 | 0.769 ± 0.05 | 0.761 ± 0.05 |
| C=CCCCC [hex-1-ene] + CCCCCCCCCCCCCC[P+](CCCCCC)(CCCCCC)CCCCCC.F[B-](F)(F)F | 0.57 ± 0.041 | 0.558 ± 0.04 | 0.551 ± 0.04 |
| C1CCCC1 [cyclopentane] + CCCCCCCCCCCCCC[P+](CCCCCC)(CCCCCC)CCCCCC.[Cl-] | 0.579 ± 0.041 | 0.576 ± 0.041 | 0.574 ± 0.041 |
| CCCCCCCC [octane] + CCCCCCCCCCCCCC[P+](CCCCCC)(CCCCCC)CCCCCC.F[B-](F)(F)F | 1.15 ± 0.073 | 1.11 ± 0.071 | 1.09 ± 0.069 |
| CO [methanol] + CCCCCCCCCCCCCC[P+](CCCCCC)(CCCCCC)CCCCCC.[Cl-] | 0.887 ± 0.056 | 0.879 ± 0.056 | 0.873 ± 0.056 |
| CCCCCCCC [octane] + CCCCCCCCCCCCCC[P+](CCCCCC)(CCCCCC)CCCCCC.[Cl-] | 0.847 ± 0.054 | 0.831 ± 0.054 | 0.821 ± 0.053 |
| CCCCC [pentane] + CCCCCCCCCCCCCC[P+](CCCCCC)(CCCCCC)CCCCCC.[Cl-] | 0.607 ± 0.042 | 0.599 ± 0.042 | 0.594 ± 0.042 |
| c1ccccc1 [benzene] + CCCCCCCCCCCCCC[P+](CCCCCC)(CCCCCC)CCCCCC.F[B-](F)(F)F | 0.37 ± 0.033 | 0.367 ± 0.033 | 0.366 ± 0.033 |
| C#CCCCCC [1-heptyne] + CCCCCCCCCCCCCC[P+](CCCCCC)(CCCCCC)CCCCCC.O=S(=O)([N-]S(=O)(=O)C(F)(F)F)C(F)(F)F | 0.485 ± 0.037 | 0.496 ± 0.038 | 0.502 ± 0.038 |
| C#CCCCCCC [1-octyne] + CCCCCCCCCCCCCC[P+](CCCCCC)(CCCCCC)CCCCCC.O=S(=O)([N-]S(=O)(=O)C(F)(F)F)C(F)(F)F | 0.511 ± 0.038 | 0.524 ± 0.039 | 0.532 ± 0.039 |
| C#CCCCCC [1-heptyne] + CCCCCCCCCCCCCC[P+](CCCCCC)(CCCCCC)CCCCCC.[Cl-] | 0.479 ± 0.037 | 0.494 ± 0.038 | 0.504 ± 0.038 |
| C1CCCCC1 [cyclohexane] + CCCCCCCCCCCCCC[P+](CCCCCC)(CCCCCC)CCCCCC.F[B-](F)(F)F | 0.73 ± 0.048 | 0.719 ± 0.048 | 0.712 ± 0.047 |
| C1CCCCCC1 [cycloheptane] + CCCCCCCCCCCCCC[P+](CCCCCC)(CCCCCC)CCCCCC.[Cl-] | 0.861 ± 0.055 | 0.753 ± 0.05 | 0.763 ± 0.05 |
| CCCCC [pentane] + CCCCCCCCCCCCCC[P+](CCCCCC)(CCCCCC)CCCCCC.F[B-](F)(F)F | 0.722 ± 0.048 | 0.706 ± 0.047 | 0.695 ± 0.047 |
| CCO [ethanol] + CCCCCCCCCCCCCC[P+](CCCCCC)(CCCCCC)CCCCCC.O=S(=O)([N-]S(=O)(=O)C(F)(F)F)C(F)(F)F | 0.884 ± 0.056 | 0.894 ± 0.057 | 0.902 ± 0.057 |
| C#CCCCCCC [1-octyne] + CCCCCCCCCCCCCC[P+](CCCCCC)(CCCCCC)CCCCCC.[Cl-] | 0.494 ± 0.038 | 0.514 ± 0.038 | 0.526 ± 0.039 |
| C=CCCCCCC [oct-1-ene] + CCCCCCCCCCCCCC[P+](CCCCCC)(CCCCCC)CCCCCC.O=S(=O)([N-]S(=O)(=O)C(F)(F)F)C(F)(F)F | 0.617 ± 0.043 | 0.605 ± 0.042 | 0.598 ± 0.042 |
| C#CCCCC [1-hexyne] + CCCCCCCCCCCCCC[P+](CCCCCC)(CCCCCC)CCCCCC.[Cl-] | 0.449 ± 0.036 | 0.461 ± 0.036 | 0.468 ± 0.037 |
| CCCCCCC [heptane] + CCCCCCCCCCCCCC[P+](CCCCCC)(CCCCCC)CCCCCC.F[B-](F)(F)F | 1 ± 0.063 | 0.97 ± 0.061 | 0.952 ± 0.06 |
| CCCCCC [hexane] + CCCCCCCCCCCCCC[P+](CCCCCC)(CCCCCC)CCCCCC.[Cl-] | 0.766 ± 0.05 | 0.753 ± 0.05 | 0.746 ± 0.049 |
| CCCCCCCC [octane] + CCCCCCCCCCCCCC[P+](CCCCCC)(CCCCCC)CCCCCC.O=S(=O)([N-]S(=O)(=O)C(F)(F)F)C(F)(F)F | 0.843 ± 0.054 | 0.825 ± 0.053 | 0.814 ± 0.053 |
| C=CCCCC [hex-1-ene] + CCCCCCCCCCCCCC[P+](CCCCCC)(CCCCCC)CCCCCC.O=S(=O)([N-]S(=O)(=O)C(F)(F)F)C(F)(F)F | 0.501 ± 0.038 | 0.494 ± 0.038 | 0.49 ± 0.037 |
| CCO [ethanol] + CCCCCCCCCCCCCC[P+](CCCCCC)(CCCCCC)CCCCCC.F[B-](F)(F)F | 5.59 ± 0.38 | 5.36 ± 0.36 | 5.14 ± 0.35 |
